Laboratory results from ChEMBL document CHEMBL1121737, “Synthesis and evaluation of some stable multisubstrate adducts as specific inhibitors of spermidine synthase” (J Med Chem, 1981).

Legend:
[1] = target: T1, Spermidine synthase (Rattus norvegicus) (UniProt Q99MI5); assay: Inhibition of spermidine synthase at 25 uM concentration of the compound; values are per cent of control
T1 sequence (whole entry): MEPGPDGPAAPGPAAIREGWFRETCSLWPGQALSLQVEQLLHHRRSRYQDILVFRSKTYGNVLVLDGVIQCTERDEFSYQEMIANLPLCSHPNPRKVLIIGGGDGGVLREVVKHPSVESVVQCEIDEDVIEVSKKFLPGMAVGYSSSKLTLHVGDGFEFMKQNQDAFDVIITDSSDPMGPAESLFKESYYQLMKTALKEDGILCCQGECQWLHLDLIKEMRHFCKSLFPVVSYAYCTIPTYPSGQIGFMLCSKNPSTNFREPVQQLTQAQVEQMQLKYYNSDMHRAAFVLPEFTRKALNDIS

[2] = target: T1, Spermidine synthase (Rattus norvegicus); assay: Inhibition of spermidine synthase at 100 uM concentration of the compound; values are per cent of control
[3] = target: T1, Spermidine synthase (Rattus norvegicus); assay: Inhibition of spermidine synthase at 50 uM concentration of the compound; values are per cent of control
[4] = target: T1, Spermidine synthase (Rattus norvegicus); assay: Inhibition of spermidine synthase at 10 uM concentration of the compound; values are per cent of control
Spermidine synthase = target: T2, Spermidine synthase (Rattus norvegicus, UniProt Q99MI5); assay: Inhibitory activity against spermidine synthase; conditions: read-out: I50
T2 sequence (Q99MI5 whole entry): T1 sequence (whole entry)

[5] = test system: spermine synthase (Rattus norvegicus); assay: Inhibition of spermine synthase at 100 uM concentration of the compound; values are per cent of control
[6] = target: T1, Spermidine synthase (Rattus norvegicus); assay: Inhibition of spermidine synthase at 250 uM concentration of the compound; values are per cent of control
[7] = test system: spermine synthase (Rattus norvegicus); assay: Inhibition of spermine synthase at 25 uM concentration of the compound; values are per cent of control
[8] = test system: spermine synthase (Rattus norvegicus); assay: Inhibition of spermine synthase at 50 uM concentration of the compound; values are per cent of control
[9] = test system: spermine synthase (Rattus norvegicus); assay: Inhibition of spermine synthase at 10 uM concentration of the compound; values are per cent of control
[10] = test system: spermine synthase (Rattus norvegicus); assay: Inhibition of spermine synthase at 250 uM concentration of the compound; values are per cent of control
[11] = target: T1, Spermidine synthase (Rattus norvegicus); assay: Inhibition of spermidine synthase at 5 uM concentration of the compound; values are per cent of control

SMILES | residual activity [1] | residual activity [2] | residual activity [3] | residual activity [4] | IC50 (Spermidine synthase) | residual activity [5] | residual activity [6] | residual activity [7] | residual activity [8] | residual activity [9] | residual activity [10] | residual activity [11]
NCCCCCC(CCN)SC[C@H]1O[C@@H](n2cnc3c(N)ncnc32)[C@H](O)[C@@H]1O (stereo partly drawn) | 3% | 1% | 1% | 3% | – | – | – | – | – | – | – | –
CCCCCC(CC)[S+](C)C[C@H]1O[C@H](n2cnc3c(N)ncnc32)[C@H](O)[C@@H]1O (stereo partly drawn) | 99% | 80% | 93% | 98% | 250 µM | 44% | 56% | 88% | 65% | 94% | 25% | –
C[S+](C[C@H]1O[C@H](n2cnc3c(N)ncnc32)[C@H](O)[C@@H]1O)C(CCN)CCCCCN (stereo partly drawn) | 31% | 8% | 16% | 68% | 15 µM | 41% | 4% | – | 60% | 93% | 14% | 84%
CCCCCC(CC)SC[C@H]1OC(n2cnc3c(N)ncnc32)[C@H](O)[C@@H]1O (stereo partly drawn) | 102% | 104% | – | – | – | – | – | – | – | – | – | –
